Measurements: patent publication US11440923B2, “Substituted macrocyclic indole derivatives” (Bayer Aktiengesellschaft, priority 2017, dated 2022)
Where a name gives a salt, the structure may show the parent alone. Read-outs that look alike come from different tables or passages of the source.

Columns and labels:
BCL-2 = BCL-2 (Homo sapiens (Human), UniProt P10415); experiment: Protein-protein interaction assay BCL-2/Bad BH3 peptide (BCL-2 assay, TR-FRET); assay type: binding; conditions: read-out: BCL-2 Assay IC50 (median)
Description: Assay 3 Protein-Protein Interaction Assay: BCL-2/Bad BH3 Peptide (BCL-2 Assay)
The dose-dependent inhibition by the compounds described in this invention of the interaction between BCL-2 and the BH3 domain of Bad (both human) was determined using a steady state binding competition assay with time-resolved fluorescence energy transfer (TR-FRET) readout. For that purpose BCL-2 (amino acids 1-211, C-terminal fused to a hexahistidine (6×His) tag (SEQ ID 5) and a synthetic Bad BH3-derived peptide of sequence Biotin-PEG2-PEG2-[…]-Nle-[…]-amide (SEQ ID 4) served as protein receptor and tracer ligand respectively. The recombinant BCL-2 protein (expressed in E. coli) was purchased from BPS Bioscience (San Diego, Calif., USA). The Bad BH3-derived peptide can be obtained from e.g. Biosyntan (Berlin, Germany).
In the assay 11 different concentrations of each compound (0.1 nM, 0.33 nM, 1.1 nM, 3.8 nM, 13 nM, 44 nM, 0.15 μM, 0.51 μM, 1.7 μM, 5.9 μM and 20 μM) were typically measured as duplicates in the same microtiter plate. For that, 100-fold concentrated DMSO solutions were prepared by serial dilutions (1:3.4) of a 2 mM stock solution in a clear, 384-well microtiter plate (Greiner Bio-One, Frickenhausen, Germany). From there, 50 nl were transferred in a dark test plate (Greiner Bio-One, Frickenhausen, Germany). The assay was initiated by addition of 2 μL of a 2,5-fold concentrated His-BCL-2 solution (usually for a 1 nM end concentration in 5 μL reaction volume) in aqueous assay buffer [50 mM Tris/HCl pH 7, 100 mM sodium chloride (NaCl), 50 mM potassium fluoride (KF), 0.005% Tween-20, 2 mM DTT, 0.1% bovine gamma globulin (BGG)] to the compounds in the assay plate. This was followed by a 10-minute incubation step at 22° C. for pre-equilibration of the putative complex between His-BCL-2 and the compounds. After that, 3 μL of a 1.67-fold concentrated solution (in assay buffer) consisting of Bad BH3-derived peptide (1 nM end concentration) and TR-FRET detection reagents [1.67 nM anti-His-Eu cryptate and 1.67 nM streptavidin-XL665 (both from Cisbio Bioassays, Codolet, France)], were added.
The mixture was incubated in the dark for one hour at 22° C. and then overnight at 4° C. The formation of BCL-2/Bad complexes was determined by measuring the resonance energy transfer of the anti-His-Eu-cryptate antibody to the streptavidin-XL665 present in the reaction. For that purpose, the fluorescence emission at 620 nm and 665 nm after excitation at 330-350 nm was measured in a TR-FRET measuring instrument, for instance a Rubystar or a Pherastar (both from BMG Lab Technologies, Offenburg, Germany) or a Viewlux (Perkin-Elmer). The ratio of the emission at 665 nm and at 622 nm was used as indicator of the amount of BCL-2/Bad complexes present.
The resulting data (ratio) were normalized, taking 0% inhibition as the mean value of control measurements (usually 32 data points) where all reagents were included. In this case 50 nl DMSO were used instead of compounds. […] IC50 values were determined by regression analysis based on a 4 parameter equation (minimum, maximum, IC50, Hill; Y=Max+(Min−Max)/(1+(X/IC50)^Hill) using the Screener Software (Genedata).

AMO-1 cells = experiment: Antiproliferation assay AMO-1 (Assay 7); assay type: cell-based
Procedure, shortened: (§1)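 Luminescent viability signal (CellTiter-Glo) after 72 h of treatment served as read-out. IC50 values were derived with day 0 luminescence as CI and DMSO wells as C0.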

HMC-1-8 cells = experiment: Antiproliferation assay HMC-1-8 (Assay 7); assay type: cell-based
Procedure, shortened: as §1

[1] = Homo sapiens, AMO1, 72 h, 72 h, CellTiter-Glo, read-out: Antiproli AMO-1 IC50 median
[2] = 72 h, CellTiter-Glo, read-out: Antiproli HMC-1-8 IC50 median
[3] = read-out: Antiproli AMO-1 IC50 median, 72 h, CellTiter-Glo
[4] = read-out: Antiproli HMC-1-8 IC50 median; 72 h, CellTiter-Glo
[5] = 72 h, read-out: Antiproli HMC-1-8 IC50 median, 72 h, CellTiter-Glo
[6] = 72 h, CellTiter-Glo, read-out: Antiproli AMO-1 IC50 median
[7] = 72 h, CellTiter-Glo; read-out: Antiproli HMC-1-8 IC50 median

Sequence of BCL-2 (P10415 1-211): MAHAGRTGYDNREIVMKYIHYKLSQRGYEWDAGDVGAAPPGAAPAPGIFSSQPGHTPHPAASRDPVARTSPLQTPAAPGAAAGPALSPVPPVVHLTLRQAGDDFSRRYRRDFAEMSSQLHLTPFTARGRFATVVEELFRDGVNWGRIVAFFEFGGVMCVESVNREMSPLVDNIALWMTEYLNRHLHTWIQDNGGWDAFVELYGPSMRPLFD

Row | SMILES | IC50 (BCL-2) [µM] | IC50 (AMO-1 cells; [1]) [µM] | IC50 (HMC-1-8 cells; [2]) [µM] | other results
1 | Cc1c2c(nn1C)C(CCN1CCOCC1)OCCCCn1c(C(=O)O)c(CCCOc3cccc4cc(F)ccc34)c3ccc(Cl)c-2c31 (single isomer, unassigned; enantiomer 2) [Example 18, 4-chloro-7-{3-[(6-fluoronaphthalen-1-yl)oxy]propyl}-2,3-dimethyl-15-[2-(morpholin-4-yl)ethyl]-2,10,11,12,13,15-hexahydropyrazolo[4′,3′:9,10][1,6]oxazacycloundecino[8,7,6-hi]indole-8-carboxylic Acid (Enantiomer 2)] | > 20 | 2.37 | 12.5 | 
2 | Cc1c2c(nn1C)C(C1CC1)OCCCCn1c(C(=O)O)c(CCCOc3cccc4ccccc34)c3ccc(Cl)c-2c31 (racemic) [Example 28, (rac)-4-Chloro-15-cyclopropyl-2,3-dimethyl-7-{3-[(naphthalen-1-yl)oxy]propyl}-2,10,11,12,13,15-hexahydropyrazolo[4′,3′:9,10][1,6]oxazacycloundecino[8,7,6-hi]indole-8-carboxylic Acid] | > 20 | 10.9 | 20.8 | 
3 | CCc1c2c(nn1C)C(CCOC)OCCCCn1c(C(=O)O)c(CCCOc3cccc4cc(F)ccc34)c3ccc(Cl)c-2c31 (single isomer, unassigned; enantiomer 2) [Example 43, (−)-4-chloro-3-ethyl-7-{3-[(6-fluoronaphthalen-1-yl)oxy]propyl}-15-(2-methoxyethyl)-2-methyl-2,10,11,12,13,15-hexahydropyrazolo[4′,3′:9,10][1,6]oxazacycloundecino[8,7,6-hi]indole-8-carboxylic Acid—N-ethylethanamine Salt (Enantiomer 2)] | 19.3 |  |  | IC50 (AMO-1 cells; [3]): 20 µM; IC50 (HMC-1-8 cells; [4]): 26.5 µM
4 | Cc1c2c(nn1C)C(CCN1CCOCC1)OCCCCn1c(C(=O)O)c(CCCOc3cccc4cc(F)ccc34)c3ccc(F)c-2c31 (single isomer, unassigned; enantiomer 1) [Example 20, 4-fluoro-7-{3-[(6-fluoronaphthalen-1-yl)oxy]propyl}-2,3-dimethyl-15-[2-(morpholin-4-yl)ethyl]-2,10,11,12,13,15-hexahydropyrazolo[4′,3′:9,10][1,6]oxazacycloundecino[8,7,6-hi]indole-8-carboxylic Acid—N-ethylethanamine (Enantiomer 1)] | > 20 |  |  | IC50 (AMO-1 cells; Homo sapiens, AMO1, 72 h, read-out: Antiproli AMO-1 IC50 median, 72 h, CellTiter-Glo): 0.0945 µM; IC50 (HMC-1-8 cells; [5]): 0.46 µM
5 | CCC1OCCCCn2c(C(=O)O)c(CCCOc3cccc4ccccc34)c3ccc(Cl)c(c32)-c2c1nn(C)c2C (single isomer, unassigned; enantiomer 1) [Example 29, (+)-4-chloro-15-ethyl-2,3-dimethyl-7-{3-[(naphthalen-1-yl)oxy]propyl}-2,10,11,12,13,15-hexahydropyrazolo[4′,3′:9,10][1,6]oxazacycloundecino[8,7,6-hi]indole-8-carboxylic Acid—N-ethylethanamine Salt (Enantiomer 1)] | > 20 |  |  | IC50 (AMO-1 cells; [3]): 4.35 µM; IC50 (HMC-1-8 cells; [5]): 23.2 µM
6 | CCc1c2c(nn1C)C(CCN1CCOCC1)OCCCCn1c(C(=O)O)c(CCCOc3cccc4cc(F)ccc34)c3ccc(Cl)c-2c31 (racemic) [Example 22, (rac)-4-chloro-3-ethyl-7-{3-[(6-fluoronaphthalen-1-yl)oxy]propyl}-2-methyl-15-[2-(morpholin-4-yl)ethyl]-2,10,11,12,13,15-hexahydropyrazolo[4′,3′:9,10][1,6]oxazacycloundecino[8,7,6-hi]indole-8-carboxylic Acid] | > 20 | 0.0322 | 0.279 | 
7 | CCc1c2c(nn1C)C(CCN1CCN(C)CC1)OCCCCn1c(C(=O)O)c(CCCOc3cccc4cc(F)ccc34)c3ccc(Cl)c-2c31 (racemic) [Example 71, (rac)-4-chloro-3-ethyl-7-{3-[(6-fluoronaphthalen-1-yl)oxy]propyl}-2-methyl-(15-rac)-[2-(4-methylpiperazin-1-yl)ethyl]-2,10,11,12,13,15-hexahydropyrazolo[4′,3′:9,10][1,6]oxazacycloundecino[8,7,6-hi]indole-8-carboxylic Acid—N-ethylethanamine Salt (Mixture 2 Od Stereoisomers)] | > 20 |  |  | IC50 (AMO-1 cells; [3]): 0.209 µM; IC50 (HMC-1-8 cells; [4]): 1.37 µM
8 | Cc1c2c(nn1C)C(CCO)OCCCCn1c(C(=O)O)c(CCCOc3cccc4ccccc34)c3ccc(Cl)c-2c31 (racemic) [Example 26, (rac)-4-chloro-15-(2-hydroxyethyl)-2,3-dimethyl-7-{3-[(naphthalen-1-yl)oxy]propyl}-2,10,11,12,13,15-hexahydropyrazolo[4′,3′:9,10][1,6]oxazacycloundecino[8,7,6-hi]indole-8-carboxylic Acid] | > 20 | 0.577 | 6.78 | 
9 | CCc1c2c(nn1C)C(CCC1CCOCC1)OCCCCn1c(C(=O)O)c(CCCOc3cccc4cc(F)ccc34)c3ccc(Cl)c-2c31 (single isomer, unassigned; enantiomer 2) [Example 62, (−)-4-chloro-3-ethyl-7-{3-[(6-fluoronaphthalen-1-yl)oxy]propyl}-2-methyl-15-[2-(oxan-4-yl)ethyl]-2,10,11,12,13,15-hexahydropyrazolo[4′,3′:9,10][1,6]oxazacycloundecino[8,7,6-hi]indole-8-carboxylic Acid (Enantiomer 2)] | > 20 |  |  | IC50 (AMO-1 cells; [6]): 1.92 µM; IC50 (HMC-1-8 cells; [7]): 21.9 µM
10 | CCc1c2c(nn1C)C(CCN1CCOCC1)OCCCCn1c(C(=O)O)c(CCCOc3cccc4cc(F)ccc34)c3ccc(F)c-2c31 (single isomer, unassigned; enantiomer 2) [Example 51, (−)-3-ethyl-4-fluoro-7-{3-[(6-fluoronaphthalen-1-yl)oxy]propyl}-2-methyl-15-[2-(morpholin-4-yl)ethyl]-2,10,11,12,13,15-hexahydropyrazolo[4′,3′:9,10][1,6]oxazacycloundecino[8,7,6-hi]indole-8-carboxylic Acid (Enantiomer 2)] | > 20 |  |  | IC50 (AMO-1 cells; [6]): 10.8 µM; IC50 (HMC-1-8 cells; [7]): 22 µM
11 | Cc1c2c(nn1C)C(CCN1CCOCC1)OCCCCn1c(C(=O)O)c(CCCOc3cccc4ccccc34)c3ccc(Cl)c-2c31 (single isomer, unassigned; enantiomer 2) [Example 15, 4-chloro-2,3-dimethyl-15-[2-(morpholin-4-yl)ethyl]-7-{3-[(naphthalen-1-yl)oxy]propyl}-2,10,11,12,13,15-hexahydropyrazolo[4′,3′:9,10][1,6]oxazacycloundecino[8,7,6-hi]indole-8-carboxylic Acid (Enantiomer 2)] | > 20 |  |  | IC50 (AMO-1 cells; [6]): 10.5 µM
12 | Cc1c2c(nn1C)C(CCN1CCOCC1)OCCCCn1c(C(=O)O)c(CCCOc3cccc4cc(F)ccc34)c3ccc(F)c-2c31 (racemic) [Example 19, (rac)-4-fluoro-7-{3-[(6-fluoronaphthalen-1-yl)oxy]propyl}-2,3-dimethyl-15-[2-(morpholin-4-yl)ethyl]-2,10,11,12,13,15-hexahydropyrazolo[4′,3′:9,10][1,6]oxazacycloundecino[8,7,6-hi]indole-8-carboxylic Acid] | > 20 | 0.102 |  | 
